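The concentration for 50% growth inhibition is given as GI50. The concentration for full growth arrest is given as TGI.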
What was measured:
Experiment in all cases: DTP human tumour cell line panel, 384-well format
A498 renal = system: A498 renal
M14 melanoma = system: M14 melanoma
BT-549 breast = system: BT-549 breast
UO-31 renal = system: UO-31 renal
MOLT-4 leukemia = system: MOLT-4 leukemia
TK-10 renal = system: TK-10 renal
PC-3 prostate = system: PC-3 prostate
NCI-H522 lung = system: NCI-H522 lung
HOP-92 NSCLC = system: HOP-92 NSCLC
ACHN renal = system: ACHN renal
A549 NSCLC = system: A549 NSCLC
SF-295 CNS = system: SF-295 CNS
SK-OV-3 ovarian = system: SK-OV-3 ovarian
SR leukemia = system: SR leukemia
OVCAR-4 ovarian = system: OVCAR-4 ovarian
MDA-MB-435 melanoma = system: MDA-MB-435 melanoma
OVCAR-3 ovarian = system: OVCAR-3 ovarian
HS 578T breast = system: HS 578T breast
SNB-75 CNS = system: SNB-75 CNS
NCI-H460 NSCLC = system: NCI-H460 NSCLC
HCT-15 colon = system: HCT-15 colon
MDA-MB-468 breast = system: MDA-MB-468 breast
UACC-62 melanoma = system: UACC-62 melanoma
COLO 205 colon = system: COLO 205 colon
EKVX NSCLC = system: EKVX NSCLC
SN12C renal = system: SN12C renal
CAKI-1 renal = system: CAKI-1 renal
IGROV1 ovarian = system: IGROV1 ovarian
SNB-19 CNS = system: SNB-19 CNS
SF-539 CNS = system: SF-539 CNS
MCF7 breast = system: MCF7 breast
NCI-H322M lung = system: NCI-H322M lung
MDA-MB-231 breast = system: MDA-MB-231 breast
UACC-257 melanoma = system: UACC-257 melanoma
NCI-H23 lung = system: NCI-H23 lung
OVCAR-8 ovarian = system: OVCAR-8 ovarian
U251 glioblastoma = system: U251 glioblastoma
OVCAR-5 ovarian = system: OVCAR-5 ovarian
KM12 colon = system: KM12 colon
DU-145 prostate = system: DU-145 prostate
K-562 leukemia = system: K-562 leukemia
SK-MEL-2 melanoma = system: SK-MEL-2 melanoma
SK-MEL-28 melanoma = system: SK-MEL-28 melanoma
HCT-116 colon = system: HCT-116 colon
HOP-62 NSCLC = system: HOP-62 NSCLC
RXF 393 renal = system: RXF 393 renal
NCI-H226 lung = system: NCI-H226 lung
SW-620 colon = system: SW-620 colon
SF-268 CNS = system: SF-268 CNS
T-47D breast = system: T-47D breast
786-0 renal = system: 786-0 renal
SK-MEL-5 melanoma = system: SK-MEL-5 melanoma
HL-60(TB) leukemia = system: HL-60(TB) leukemia
MALME-3M melanoma = system: MALME-3M melanoma
HT29 colon = system: HT29 colon

In the case of `COc1cc2c(N3CCN(C(=O)Nc4ccc(OC(C)C)cc4)CC3)ncnc2cc1OCCCN1CCCCC1`, the GI50 (A498 renal) is reported as 5.09 µM, the TGI (A498 renal) is reported as 17.3 µM and the GI50 (M14 melanoma) is reported as 12.3 µM. For the same molecule, the TGI (M14 melanoma) was 24.9 µM, the GI50 (BT-549 breast) was 8.6 µM and the TGI (BT-549 breast) was 20.8 µM. The GI50 (UO-31 renal) was 16.4 µM, the TGI (UO-31 renal) was 30.1 µM and the GI50 (MOLT-4 leukemia) was 2.61 µM. It also gave a TGI (MOLT-4 leukemia) of 5.95 µM, a GI50 (TK-10 renal) of 10.8 µM and a TGI (TK-10 renal) of 25.2 µM. It also gave a GI50 (PC-3 prostate) of 10.8 µM, a TGI (PC-3 prostate) of 24 µM and a GI50 (NCI-H522 lung) of 12.5 µM. For the same molecule, the TGI (NCI-H522 lung) was 25 µM, the GI50 (HOP-92 NSCLC) was 9.13 µM and the TGI (HOP-92 NSCLC) was 21.3 µM. For the same molecule, the GI50 (ACHN renal) was 9.76 µM, the TGI (ACHN renal) was 22.6 µM and the GI50 (A549 NSCLC) was 14.1 µM. It also gave a TGI (A549 NSCLC) of 29 µM, a GI50 (SF-295 CNS) of 11.5 µM and a TGI (SF-295 CNS) of 23.8 µM. It also gave a GI50 (SK-OV-3 ovarian) of 12.5 µM, a TGI (SK-OV-3 ovarian) of 25.2 µM and a GI50 (SR leukemia) of 1.93 µM. The TGI (SR leukemia) was 3.54 µM, the GI50 (OVCAR-4 ovarian) was 13.9 µM and the TGI (OVCAR-4 ovarian) was 30.5 µM. It also gave a GI50 (MDA-MB-435 melanoma) of 13 µM, a TGI (MDA-MB-435 melanoma) of 25.9 µM and a GI50 (OVCAR-3 ovarian) of 14.3 µM. It also gave a TGI (OVCAR-3 ovarian) of 28.2 µM, a GI50 (HS 578T breast) of 4.87 µM and a TGI (HS 578T breast) of 17.9 µM. The GI50 (SNB-75 CNS) was 9.87 µM, the TGI (SNB-75 CNS) was 21.6 µM and the GI50 (NCI-H460 NSCLC) was 2.48 µM. For the same molecule, the TGI (NCI-H460 NSCLC) was 12.2 µM, the GI50 (HCT-15 colon) was 15.8 µM and the TGI (HCT-15 colon) was 29.5 µM. For the same molecule, the GI50 (MDA-MB-468 breast) was 3.91 µM, the TGI (MDA-MB-468 breast) was 14.5 µM and the GI50 (UACC-62 melanoma) was 7.65 µM. It also gave a TGI (UACC-62 melanoma) of 20.6 µM, a GI50 (COLO 205 colon) of 12.1 µM and a TGI (COLO 205 colon) of 24.7 µM. It also gave a GI50 (EKVX NSCLC) of 5.21 µM, a TGI (EKVX NSCLC) of 19.5 µM and a GI50 (SN12C renal) of 13.1 µM. For the same molecule, the TGI (SN12C renal) was 26.2 µM, the GI50 (CAKI-1 renal) was 2.25 µM and the TGI (CAKI-1 renal) was 6.6 µM. It also gave a GI50 (IGROV1 ovarian) of 13.4 µM, a TGI (IGROV1 ovarian) of 26.9 µM and a GI50 (SNB-19 CNS) of 16 µM. It also gave a TGI (SNB-19 CNS) of 41.6 µM, a GI50 (SF-539 CNS) of 1.84 µM and a TGI (SF-539 CNS) of 16.4 µM. For the same molecule, the GI50 (MCF7 breast) was 3.18 µM, the TGI (MCF7 breast) was 15.1 µM and the GI50 (NCI-H322M lung) was 12.1 µM. It also gave a TGI (NCI-H322M lung) of 32.7 µM, a GI50 (MDA-MB-231 breast) of 13.6 µM and a TGI (MDA-MB-231 breast) of 31.4 µM. It also gave a GI50 (UACC-257 melanoma) of 1.99 µM, a TGI (UACC-257 melanoma) of 4.04 µM and a GI50 (NCI-H23 lung) of 12 µM. The TGI (NCI-H23 lung) was 25.7 µM, the GI50 (OVCAR-8 ovarian) was 11.3 µM and the TGI (OVCAR-8 ovarian) was 32.3 µM. For the same molecule, the GI50 (U251 glioblastoma) was 11 µM, the TGI (U251 glioblastoma) was 23.1 µM and the GI50 (OVCAR-5 ovarian) was 13.1 µM. The TGI (OVCAR-5 ovarian) was 35 µM, the GI50 (KM12 colon) was 12.3 µM and the TGI (KM12 colon) was 25.1 µM. For the same molecule, the GI50 (DU-145 prostate) was 12.5 µM, the TGI (DU-145 prostate) was 26.3 µM and the GI50 (K-562 leukemia) was 3.31 µM. The TGI (K-562 leukemia) was 11.5 µM, the GI50 (SK-MEL-2 melanoma) was 3.78 µM and the TGI (SK-MEL-2 melanoma) was 12.8 µM. It also gave a GI50 (SK-MEL-28 melanoma) of 12.3 µM, a TGI (SK-MEL-28 melanoma) of 24.8 µM and a GI50 (HCT-116 colon) of 9.38 µM. The TGI (HCT-116 colon) was 21.6 µM, the GI50 (HOP-62 NSCLC) was 7.62 µM and the TGI (HOP-62 NSCLC) was 21.1 µM. The GI50 (RXF 393 renal) was 2.82 µM, the TGI (RXF 393 renal) was 9.78 µM and the GI50 (NCI-H226 lung) was 7.66 µM. For the same molecule, the TGI (NCI-H226 lung) was 21.5 µM, the GI50 (SW-620 colon) was 10.9 µM and the TGI (SW-620 colon) was 23.1 µM. The GI50 (SF-268 CNS) was 8.64 µM, the TGI (SF-268 CNS) was 21.1 µM and the GI50 (T-47D breast) was 10.4 µM. It also gave a TGI (T-47D breast) of 22.3 µM, a GI50 ([…]-0 renal) of 8.32 µM and a TGI (786-0 renal) of 20.7 µM. It also gave a GI50 (SK-MEL-5 melanoma) of 9 µM, a TGI (SK-MEL-5 melanoma) of 21.1 µM and a GI50 (HL-60(TB) leukemia) of 15 µM. It also gave a TGI (HL-60(TB) leukemia) of 28.4 µM, a GI50 (MALME-3M melanoma) of 5.03 µM and a TGI (MALME-3M melanoma) of 17.2 µM. It also gave a GI50 (HT29 colon) of 3.24 µM and a TGI (HT29 colon) of 11.3 µM.
